Assay results published in patent publication US20230014181A1, “CULTURE SYSTEM AND METHODS FOR IMPROVED MODELING OF NEUROLOGICAL CONDITIONS” (Genentech, Inc., priority 2021, published 2023).
Structures can show the parent of a compound that is named as a salt. Where two headings read alike, the source gives them in different places.

System: human iPSC neurons, astrocytes and microglia treated with 5 μM sAβ42s
Experiment: Focused small molecule screen, triple culture (neuron, astrocyte, microglia), rescue from sAβ42s toxicity
Type: cell-based
Settings: for percent rescue from sAβ42s toxicity at 50 µM / percent rescue from sAβ42s toxicity at 12.5 µM / percent rescue from sAβ42s toxicity at 0.78 µM / percent rescue from sAβ42s toxicity at 3.13 µM: Homo sapiens, iPSC
Method: FIGS. 11A-11D show synapse % rescue versus MAP2% rescue (FIGS. 11A-11B) and beta III tubulin % rescue versus MAP2% rescue (FIGS. 11C-11D), in neurons and astrocytes (FIGS. 11A and 11C) or neurons, astrocytes, and microglia (FIGS. 11B and 11D) treated with 5 μM sAβ42s and small molecules from a focused screen of known neuroprotective agents at multiple concentrations (50 μM, 25 μM, 12.5 μM and 6.25 μM (double culture), 50 μM, 12.5 μM, 3.1 μM and 0.78 μM (triple culture). Small molecules that prevented toxicity in dendrites (MAP2), synapses (Synapsin 1/2), cell count (CUX2), or axons ([…]) at or above 30% were considered hits (red dotted line).
Frozen cells were thawed and immediately seeded at a density of 8,000 cells/well of a 384-well plate onto 8-week old neuron-astrocyte co-culture in Microglia media (BrainPhys™ neuronal media (Stem Cell Technologies) supplemented with 1× B27 with vitamin A, 1×N2 Plus Media Supplement (R&D Systems), 20 ng/mL BDNF, 20 ng/mL GDNF, 1 mM creatine, 200 nM L-ascorbic acid, 1 μg/mL mouse laminin, 0.5 mM GlutaMAX™ (Thermofisher), 0.5× penicillin-streptomycin, 1× normocin, 5 ng/mL TGF-β, 100 ng/mL human IL-34, 1.5 μg/mL cholesterol, 1 ng/mL gondoic acid, 100 ng/mL oleic acid, 460 μM thioglycerol, 1× insulin-transferrin-selenium, 25 ng/mL rhM-CSF, 5.4 μg/mL human insulin solution).
In double (neuron, astrocyte) and triple (neuron, astrocyte, microglia) cultures, each small molecule listed in Table 1 was tested in the AD model paradigm at up to four concentrations. Molecules that characterized ≥30% rescue in any of the four measurements of dendrites area (MAP2), synapses count (synapsin 1/2), or cell count (CUX2), or axon area (Beta III Tubulin; “BT3”)) were classified as hits (FIGS. 11A-11D, Table 2, and Table 3).

[1] = 50.00 μM compound, read-out: % B3T rescue
[2] = 50.00 μM compound, read-out: % MAP2 rescue
[3] = 50.00 μM compound, read-out: % Synapse rescue
[4] = 12.50 μM compound, read-out: % B3T rescue
[5] = 12.50 μM compound, read-out: % MAP2 rescue
[6] = 12.50 μM compound, read-out: % Synapse rescue
[7] = 0.78 μM compound, read-out: % B3T rescue
[8] = 0.78 μM compound, read-out: % MAP2 rescue
[9] = 0.78 μM compound, read-out: % Synapse rescue
[10] = 3.13 μM compound, read-out: % B3T rescue
[11] = 3.13 μM compound, read-out: % MAP2 rescue
[12] = 3.13 μM compound, read-out: % Synapse rescue

Molecule | % B3T rescue (50.00 μM compound) [%] | % MAP2 rescue (50.00 μM compound) [%] | % Synapse rescue (50.00 μM compound) [%] | % B3T rescue (3.13 μM compound) [%] | % MAP2 rescue (3.13 μM compound) [%] | % Synapse rescue (3.13 μM compound) [%] | % B3T rescue (12.50 μM compound) [%] | % MAP2 rescue (12.50 μM compound) [%] | % Synapse rescue (12.50 μM compound) [%] | other results
COc1ccc(S(=O)(=O)NCCCC(=O)Nc2ccc(Sc3ccc(N)cc3)cc2)cc1 [BI-6C9] | 65 | 58 | 55 | – | – | – | – | – | – | –
Cc1c[nH]c(-c2cnc(NCCNc3ccc(C#N)cn3)nc2-c2ccc(Cl)cc2Cl)n1 [CHIR 99021 trihydrochloride] | – | – | – | – | – | – | – | – | – | percent rescue from sAβ42s toxicity at 50 µM [1]: 66%; percent rescue from sAβ42s toxicity at 50 µM [2]: 58%; percent rescue from sAβ42s toxicity at 50 µM [3]: 46%
Oc1cc2c(cc1O)CN(C(=S)NCCc1ccc(Cl)cc1)CCC2 [Capsazepine] | – | – | – | – | – | – | – | – | – | percent rescue from sAβ42s toxicity at 12.5 µM [4]: 50%; percent rescue from sAβ42s toxicity at 12.5 µM [5]: 44%; percent rescue from sAβ42s toxicity at 12.5 µM [6]: 44%
Oc1cc(O)c2c(c1)O[C@H](c1ccc(O)c(O)c1)[C@H](O)C2 [Epicatechin] | – | – | – | – | – | – | – | – | – | percent rescue from sAβ42s toxicity at 50 µM [1]: 30%; percent rescue from sAβ42s toxicity at 50 µM [2]: 28%; percent rescue from sAβ42s toxicity at 50 µM [3]: 20%
C=CC[C@@H]1/C=C(\C)C[C@H](C)C[C@H](OC)[C@H]2O[C@@](O)(C(=O)C(=O)N3CCCC[C@H]3C(=O)O[C@H](/C(C)=C/[C@@H]3CC[C@@H](O)[C@H](OC)C3)[C@H](C)[C@@H](O)CC1=O)[C@H](C)C[C@@H]2OC [FK 506] | – | – | – | – | – | – | – | – | – | percent rescue from sAβ42s toxicity at 12.5 µM [4]: 52%; percent rescue from sAβ42s toxicity at 12.5 µM [5]: 34%; percent rescue from sAβ42s toxicity at 12.5 µM [6]: 34%
C=C(c1ccc(C(=O)O)c(F)c1)c1cc2c(cc1C)C(C)(C)CCC2(C)C [Fluorobexarotene] | – | – | – | 50 | 43 | 34 | 33 | 40 | 33 | –
C/C=C1\C(=O)C[C@H]2[C@@H]3CCC4=CC(=O)CC[C@]4(C)[C@H]3CC[C@]12C [Guggulsterone] | – | – | – | – | – | – | – | – | – | percent rescue from sAβ42s toxicity at 50 µM [1]: 36%; percent rescue from sAβ42s toxicity at 50 µM [2]: 19%; percent rescue from sAβ42s toxicity at 50 µM [3]: 17%
O=C(COc1ccc(Cl)cc1)NC1CCC(NC(=O)COc2ccc(Cl)cc2)CC1 (stereo not drawn) [ISR Inhibitor, ISRIB] | 22 | 31 | 21 | – | – | – | – | – | – | –
Cc1cc(C(=O)CN2CCCC2)c(C)n1-c1ccc(F)cc1 [IU1] | – | – | – | – | – | – | 41 | 32 | 23 | –
O=C1Nc2ccccc2/C1=C1/Nc2ccccc2/C1=N\O [Indinibin-3′-monoxime] | 49 | 23 | 34 | 31 | 6 | 9 | 74 | 37 | 44 | –
CCCn1c(C)c(C(=O)c2cccc3ccccc23)c2ccccc21 [JWH 015] | 42 | 38 | 26 | – | – | – | 60 | 50 | 43 | –
CCOC(=O)c1ccc(N(C)c2csc(-c3ccccc3)n2)cc1 [Neuropathiazol] | 35 | 27 | 28 | – | – | – | 35 | 44 | 42 | –
Cn1cnc2c(NCc3ccccc3)nc(NCCO)nc21 [Olomoucine] | – | – | – | – | – | – | – | – | – | percent rescue from sAβ42s toxicity at 50 µM [1]: 69%; percent rescue from sAβ42s toxicity at 50 µM [2]: -8%; percent rescue from sAβ42s toxicity at 50 µM [3]: -15%
OC(CNc1ccccc1)Cn1c2ccc(Br)cc2c2cc(Br)ccc21 (stereo not drawn) [P7C3] | 43 | −8 | 2 | 30 | 2 | 3 | – | – | – | –
O=C(NOC[C@H](O)CO)c1ccc(F)c(F)c1Nc1ccc(I)cc1F [PD0325901] | – | – | – | – | – | – | – | – | – | percent rescue from sAβ42s toxicity at 0.78 µM [7]: 48%; percent rescue from sAβ42s toxicity at 0.78 µM [8]: 19%; percent rescue from sAβ42s toxicity at 0.78 µM [9]: 15%; percent rescue from sAβ42s toxicity at 3.13 µM [10]: 52%; percent rescue from sAβ42s toxicity at 3.13 µM [11]: 23%; percent rescue from sAβ42s toxicity at 3.13 µM [12]: 21%; percent rescue from sAβ42s toxicity at 12.5 µM [4]: 43%; percent rescue from sAβ42s toxicity at 12.5 µM [5]: 8%; percent rescue from sAβ42s toxicity at 12.5 µM [6]: 8%; percent rescue from sAβ42s toxicity at 50 µM [1]: 59%; percent rescue from sAβ42s toxicity at 50 µM [2]: 27%; percent rescue from sAβ42s toxicity at 50 µM [3]: 27%
CC(C)[C@H](CO)Nc1nc(Nc2cccc(Cl)c2)c2ncn(C(C)C)c2n1 [Purvalanol A] | – | – | – | 33 | 15 | 24 | – | – | – | –
Oc1ccc(C=Cc2cc(O)cc(O)c2)cc1 [Resveratrol] | – | – | – | – | – | – | – | – | – | percent rescue from sAβ42s toxicity at 0.78 µM [7]: 27%; percent rescue from sAβ42s toxicity at 0.78 µM [8]: 33%; percent rescue from sAβ42s toxicity at 0.78 µM [9]: 24%; percent rescue from sAβ42s toxicity at 3.13 µM [10]: 30%; percent rescue from sAβ42s toxicity at 3.13 µM [11]: 33%; percent rescue from sAβ42s toxicity at 3.13 µM [12]: 27%; percent rescue from sAβ42s toxicity at 12.5 µM [4]: 54%; percent rescue from sAβ42s toxicity at 12.5 µM [5]: 57%; percent rescue from sAβ42s toxicity at 12.5 µM [6]: 49%; percent rescue from sAβ42s toxicity at 50 µM [1]: 78%; percent rescue from sAβ42s toxicity at 50 µM [2]: 84%; percent rescue from sAβ42s toxicity at 50 µM [3]: 78%
Cn1cc(C2=C(c3ccc(Cl)cc3Cl)C(=O)NC2=O)c2ccccc21 [SB216763] | 46 | −24 | −15 | – | – | – | – | – | – | –
CCCCCCCCCCCCCCCCCC(=O)NCCc1ccc(O)c(O)c1 [STEARDA] | – | – | – | 33 | 28 | 24 | 33 | 24 | 21 | % B3T rescue (0.78 μM compound): 27%; % MAP2 rescue (0.78 μM compound): 30%; % Synapse rescue (0.78 μM compound): 24%
Cc1[nH]c(/C=C2\C(=O)Nc3ccccc32)c(C)c1CCC(=O)O [SU 6668] | 77 | 80 | 75 | 34 | 31 | 26 | – | – | – | –
Cn1sc(=O)n(Cc2ccccc2)c1=O [TDZD-8] | 54 | −29 | −8 | – | – | – | – | – | – | –
CC(C)CCC[C@@H](C)[C@H]1CC[C@H]2[C@@H]3CCC4=CC(=NO)CC[C@]4(C)[C@H]3CC[C@]12C [TRO 19622] | – | – | – | – | – | – | – | – | – | percent rescue from sAβ42s toxicity at 3.13 µM [10]: 34%; percent rescue from sAβ42s toxicity at 3.13 µM [11]: -25%; percent rescue from sAβ42s toxicity at 3.13 µM [12]: -10%; percent rescue from sAβ42s toxicity at 12.5 µM [4]: 33%; percent rescue from sAβ42s toxicity at 12.5 µM [5]: -36%; percent rescue from sAβ42s toxicity at 12.5 µM [6]: -13%
COc1cc([C@@H]2c3cc4c(cc3[C@@H](O[C@@H]3O[C@@H]5CO[C@@H](c6cccs6)O[C@H]5[C@H](O)[C@H]3O)[C@H]3COC(=O)[C@H]23)OCO4)cc(OC)c1O [Teniposide] | – | – | – | – | – | – | – | – | – | percent rescue from sAβ42s toxicity at 0.78 µM [7]: 35%; percent rescue from sAβ42s toxicity at 0.78 µM [8]: -7%; percent rescue from sAβ42s toxicity at 0.78 µM [9]: 1%; percent rescue from sAβ42s toxicity at 3.13 µM [10]: 42%; percent rescue from sAβ42s toxicity at 3.13 µM [11]: -10%; percent rescue from sAβ42s toxicity at 3.13 µM [12]: 5%; percent rescue from sAβ42s toxicity at 12.5 µM [4]: 50%; percent rescue from sAβ42s toxicity at 12.5 µM [5]: -17%; percent rescue from sAβ42s toxicity at 12.5 µM [6]: 3%; percent rescue from sAβ42s toxicity at 50 µM [1]: 52%; percent rescue from sAβ42s toxicity at 50 µM [2]: -19%; percent rescue from sAβ42s toxicity at 50 µM [3]: 3%
CC(/C=C/C(=O)NO)=C\[C@@H](C)C(=O)c1ccc(N(C)C)cc1 [Trichostatin A] | 41 | −13 | 1 | – | – | – | 31 | −18 | 2 | –
Cc1c(C)c(NCC(=O)N(C)C2CCN(Cc3ccc(C(N)=O)cc3)CC2)c(C)c(C)c1N [sun11602] | 47 | 14 | 11 | 33 | 10 | 11 | 43 | 19 | 15 | –
Lycorine hydrochloride | 79 | 88 | 75 | 77 | 99 | 80 | 83 | 93 | 77 | % B3T rescue (0.78 μM compound): 37%; % MAP2 rescue (0.78 μM compound): 57%; % Synapse rescue (0.78 μM compound): 43%
